Molecules are shown by their SMILES. pIC50: −log10 of the molar value. Structures can show the parent of a compound that is named as a salt. Where two headings read alike, the source gives them in different places.

What all share (type): biochemical
Test [1] has as its target T1, human JAK2 (a.a. 828-1132) (Homo sapiens, UniProt O60674).
T1 construct: JAK2 (a.a. 828-1132); His tag (N); made in house; host or cells: insect cells (baculovirus)
In words: In vitro JAK kinase assay (HTRF, phosphorylation of a biotinylated peptide), JAK2. The method in brief:
(§1)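 Kinase reactions ran at room temperature for 1 h with ATP matched per isoform (JAK1 90 μM, JAK2 30 μM, JAK3 3 μM). After an EDTA stop, the phosphorylated biotin-peptide was read by HTRF using Eu-Py20 and SA-APC after 40 min binding.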
(In general: In TR-FRET formats the signal depends on donor and acceptor labels being close together.)

For test [2], the target named is TYK2 (Homo sapiens, UniProt P29597). In words: TYK2 kinase inhibition (Table A1).
In test [3] the target is T2, Recombinant Human Anaplastic Lymphoma Kinase (Homo sapiens, UniProt Q9UM73).
T2 construct: purchased Invitrogen, Carlsbad, Calif
The test can be described thus: ALK HTRF kinase assay. An excerpt:
Materials: Recombinant Human Anaplastic Lymphoma Kinase was purchased from Invitrogen, Carlsbad, Calif. Peptide substrate (Biotin-[…]-amide) was custom synthesized at EZBiolab, Westfield, Ind. Streptavidin conjugated SureLight-Allophycocyania and LANCE Eu-W1024 labeled anti-phosphotyrosine antibody were from Perkin-Elmer, Boston, Mass. Microplates were from Corning Inc., Acton, Mass. All other reagents were from Sigma, St. Louis, Mo.
Plates were read in Fusion α-FP instrument (Perkin-Elmer). […] Signal=Bottom+(Top−Bottom)/(1+10^((Log(IC50)−Log [I])*Hill Slope) Bottom and Top refer to the post and pre-transition baselines, respectively.

Test [4] concerns the target T3, human JAK3 (a.a. 781-1124) (Homo sapiens, UniProt P52333).
T3 construct: JAK3 (a.a. 781-1124); His tag (N); made in house; host or cells: insect cells (baculovirus)
The test can be described thus: In vitro JAK kinase assay (HTRF, phosphorylation of a biotinylated peptide), JAK3. The method in brief:
as §1

Test [5] deals with T4, human JAK1 (a.a. 837-1142) (Homo sapiens, UniProt P23458).
T4 construct: human JAK1 (a.a. 837-1142); His tag (N); made in house; host or cells: insect cells (baculovirus)
In words: In vitro JAK kinase assay (HTRF, phosphorylation of a biotinylated peptide), JAK1. Particulars: read-out: JAK1 IC50. The method in brief: as §1

The mark [6] stands for this setting: method AA1 (30 μM ATP) or AA2 (1000 μM ATP), not stated per value.
Where [7] appears, read: compound at 500 nM or 1 mM, 90 μM ATP.
The mark [8] stands for this setting: method AA1 (3 μM ATP) or AA2 (1000 μM ATP), not stated per value.
[9] abbreviates: method AA1 (90 μM ATP) or AA2 (1000 μM ATP), not stated per value.
The mark [10] stands for this setting: Table B1, cells without percent sign.
Setting [11] is: compound at a concentration of 500 nM or 1 mM (not specified), cells shown as percentage.

T1 sequence (O60674 828-1132): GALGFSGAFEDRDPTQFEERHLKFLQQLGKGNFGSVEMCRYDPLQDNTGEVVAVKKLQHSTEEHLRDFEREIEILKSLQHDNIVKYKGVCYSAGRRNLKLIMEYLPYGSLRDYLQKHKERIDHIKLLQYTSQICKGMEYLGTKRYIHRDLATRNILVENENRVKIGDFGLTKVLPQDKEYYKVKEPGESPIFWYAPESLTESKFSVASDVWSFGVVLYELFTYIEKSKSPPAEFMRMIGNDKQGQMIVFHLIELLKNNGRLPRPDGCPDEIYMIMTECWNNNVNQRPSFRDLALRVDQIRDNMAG
T4 sequence (P23458 849-1154): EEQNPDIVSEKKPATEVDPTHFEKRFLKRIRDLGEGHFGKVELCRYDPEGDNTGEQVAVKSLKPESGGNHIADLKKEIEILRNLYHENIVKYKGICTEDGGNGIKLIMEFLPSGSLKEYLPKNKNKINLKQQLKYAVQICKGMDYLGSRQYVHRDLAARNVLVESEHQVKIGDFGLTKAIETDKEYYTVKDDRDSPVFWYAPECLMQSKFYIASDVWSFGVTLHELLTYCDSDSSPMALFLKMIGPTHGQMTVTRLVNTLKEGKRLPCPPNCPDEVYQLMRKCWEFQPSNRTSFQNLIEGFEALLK
T2 sequence (Q9UM73 19-1620): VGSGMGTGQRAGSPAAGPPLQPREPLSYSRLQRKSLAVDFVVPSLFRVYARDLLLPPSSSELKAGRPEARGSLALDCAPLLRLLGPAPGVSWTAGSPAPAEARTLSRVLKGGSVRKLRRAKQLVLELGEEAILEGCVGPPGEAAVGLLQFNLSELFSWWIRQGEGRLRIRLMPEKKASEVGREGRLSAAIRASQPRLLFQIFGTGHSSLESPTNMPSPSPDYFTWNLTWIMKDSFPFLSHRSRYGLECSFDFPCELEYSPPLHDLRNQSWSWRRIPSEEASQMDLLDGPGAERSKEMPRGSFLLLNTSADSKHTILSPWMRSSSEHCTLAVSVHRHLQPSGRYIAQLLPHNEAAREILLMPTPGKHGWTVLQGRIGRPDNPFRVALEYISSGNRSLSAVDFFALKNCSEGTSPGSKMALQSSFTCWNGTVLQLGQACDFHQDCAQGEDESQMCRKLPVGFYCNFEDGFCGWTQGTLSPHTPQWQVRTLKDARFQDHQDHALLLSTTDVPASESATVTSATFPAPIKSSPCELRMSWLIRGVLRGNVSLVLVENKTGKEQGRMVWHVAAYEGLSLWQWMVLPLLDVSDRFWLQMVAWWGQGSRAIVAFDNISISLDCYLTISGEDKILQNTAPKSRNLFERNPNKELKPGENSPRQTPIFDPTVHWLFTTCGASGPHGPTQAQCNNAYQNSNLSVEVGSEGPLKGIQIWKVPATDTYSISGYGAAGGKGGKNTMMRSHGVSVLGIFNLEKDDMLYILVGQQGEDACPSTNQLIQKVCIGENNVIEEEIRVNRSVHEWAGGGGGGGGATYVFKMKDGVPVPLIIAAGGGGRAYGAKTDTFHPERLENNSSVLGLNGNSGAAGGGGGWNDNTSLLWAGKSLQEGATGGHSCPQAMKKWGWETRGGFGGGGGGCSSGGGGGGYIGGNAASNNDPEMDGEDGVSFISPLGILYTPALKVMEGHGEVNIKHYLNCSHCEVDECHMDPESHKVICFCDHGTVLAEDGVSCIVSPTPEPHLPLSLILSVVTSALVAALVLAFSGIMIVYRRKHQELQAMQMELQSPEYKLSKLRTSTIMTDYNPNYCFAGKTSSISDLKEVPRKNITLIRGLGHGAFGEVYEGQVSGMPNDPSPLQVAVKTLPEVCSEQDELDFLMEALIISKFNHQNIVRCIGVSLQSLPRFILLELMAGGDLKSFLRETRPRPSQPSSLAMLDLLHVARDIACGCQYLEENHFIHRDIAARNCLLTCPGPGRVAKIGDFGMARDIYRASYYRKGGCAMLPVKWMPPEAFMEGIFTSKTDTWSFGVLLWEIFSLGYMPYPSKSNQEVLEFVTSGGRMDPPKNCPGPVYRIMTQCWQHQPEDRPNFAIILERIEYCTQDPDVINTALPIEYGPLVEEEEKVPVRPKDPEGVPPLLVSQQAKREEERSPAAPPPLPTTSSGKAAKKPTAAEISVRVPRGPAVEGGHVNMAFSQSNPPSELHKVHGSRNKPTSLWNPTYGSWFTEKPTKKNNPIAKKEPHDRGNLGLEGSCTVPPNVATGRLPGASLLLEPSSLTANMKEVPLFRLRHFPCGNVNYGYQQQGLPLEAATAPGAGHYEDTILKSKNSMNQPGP
TYK2, sequence (P29597 whole entry): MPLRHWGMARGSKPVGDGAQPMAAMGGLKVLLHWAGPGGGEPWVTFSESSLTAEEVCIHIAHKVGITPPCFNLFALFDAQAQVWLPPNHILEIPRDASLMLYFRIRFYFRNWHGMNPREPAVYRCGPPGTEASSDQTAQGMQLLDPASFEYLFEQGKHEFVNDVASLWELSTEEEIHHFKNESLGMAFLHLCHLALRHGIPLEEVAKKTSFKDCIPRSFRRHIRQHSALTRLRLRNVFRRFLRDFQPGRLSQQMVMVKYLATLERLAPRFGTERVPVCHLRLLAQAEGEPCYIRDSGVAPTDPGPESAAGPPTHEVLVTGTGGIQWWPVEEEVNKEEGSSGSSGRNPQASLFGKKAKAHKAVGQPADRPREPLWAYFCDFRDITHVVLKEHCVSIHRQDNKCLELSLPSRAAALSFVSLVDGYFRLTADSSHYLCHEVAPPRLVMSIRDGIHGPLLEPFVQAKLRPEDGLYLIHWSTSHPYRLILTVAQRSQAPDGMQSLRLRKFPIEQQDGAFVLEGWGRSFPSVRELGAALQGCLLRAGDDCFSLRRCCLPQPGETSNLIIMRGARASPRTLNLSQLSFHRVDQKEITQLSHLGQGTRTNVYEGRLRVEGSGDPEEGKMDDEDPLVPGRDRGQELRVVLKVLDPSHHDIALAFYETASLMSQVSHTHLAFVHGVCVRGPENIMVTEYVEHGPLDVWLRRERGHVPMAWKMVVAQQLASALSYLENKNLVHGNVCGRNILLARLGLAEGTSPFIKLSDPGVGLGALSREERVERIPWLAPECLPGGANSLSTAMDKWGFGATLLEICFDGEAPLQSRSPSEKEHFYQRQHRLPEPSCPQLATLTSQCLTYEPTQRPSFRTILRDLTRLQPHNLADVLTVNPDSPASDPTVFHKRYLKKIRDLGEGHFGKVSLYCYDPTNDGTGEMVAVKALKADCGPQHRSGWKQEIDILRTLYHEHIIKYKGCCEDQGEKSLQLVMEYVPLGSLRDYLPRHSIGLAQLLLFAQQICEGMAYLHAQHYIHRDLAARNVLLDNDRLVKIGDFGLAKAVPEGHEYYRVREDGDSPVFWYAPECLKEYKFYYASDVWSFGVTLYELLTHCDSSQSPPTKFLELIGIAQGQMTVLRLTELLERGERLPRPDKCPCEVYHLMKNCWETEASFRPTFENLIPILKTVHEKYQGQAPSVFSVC
T3 sequence (P52333 781-1124): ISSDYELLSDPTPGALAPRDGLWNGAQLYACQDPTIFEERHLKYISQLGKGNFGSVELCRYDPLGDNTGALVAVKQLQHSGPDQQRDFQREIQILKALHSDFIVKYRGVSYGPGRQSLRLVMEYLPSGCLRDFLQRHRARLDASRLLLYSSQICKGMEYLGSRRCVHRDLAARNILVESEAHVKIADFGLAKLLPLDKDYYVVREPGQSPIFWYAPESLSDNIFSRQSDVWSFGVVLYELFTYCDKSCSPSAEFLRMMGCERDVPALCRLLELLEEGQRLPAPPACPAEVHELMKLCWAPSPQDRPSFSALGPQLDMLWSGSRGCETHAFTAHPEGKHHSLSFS

For `O=C(COc1ccc2cc1CCc1cccc(c1)Nc1ncc(Cl)c(n1)N2)N1CCN(C(=O)Nc2ccc(Cl)nc2)CC1` [Example A10, 4-(6-Chloropyridin-3-yl)-4-({[6-chloro-2,4,8,22-tetraazatetracyclo[14.3.1.1(3,7).1(9,13)]docosa-1(20),3(22),4,6,9(21),10,12,16,18-nonaen-12-yl]oxy}acetyl)piperazine-1-carboxamide bis(trifluoroacetate)], the pIC50 was 7.68 in test [1] (setting [6]), 7.30 in test [2], 6.98 in test [4] (setting [8]) and 7.85 in test [5] (setting [9]). In addition, in test [3] (setting [7]), the “ALK % of inhibition at a concentration of 500 nM or 1 mM” value (“ALK % of inhibition” below) was 5%.

`Cc1ccccc1S(=O)(=O)Nc1ccc2cc1CCc1cccc(c1)Nc1ncc(Cl)c(n1)N2` [Example B149, N-[6-Chloro-2,4,8,22-tetraazatetracyclo[14.3.1.1(3,7).1(9,13)]docosa-1(20), 3(22),4,6,9(21),10,12,16,18-nonaen-12-yl]-2-methylbenzenesulfonamide trifluoroacetate]: the pIC50 in test [2] (Table B1) was 9.29; in test [3] (setting [10]), 6.46; in test [4] (Table B1), 8.62; in test [5] (Table B1), 9.82.

Consider `COc1cccc(S(=O)(=O)N2CCC(CC(=O)Nc3ccc4cc3CCc3cccc(c3)Nc3ncc(Cl)c(n3)N4)CC2)c1` [Example A206, N-[6-Chloro-2,4,8,22-tetraazatetracyclo[14.3.1.1(3,7).1(9,13)]docosa-1(20),3(22),4,6,9(21),10,12,16,18-nonaen-12-yl]-2-{1-[(3-methoxyphenyl)sulfonyl]piperidin-4-yl}acetamide trifluoroacetate], for which the pIC50 in test [1] (setting [6]), in test [2] and in test [4] (setting [8]) was less than 6.70 throughout. In addition, the “ALK % of inhibition” value in test [3] (setting [7]) is recorded as 15%.

Take `[O-][S+]1CCc2cccc(c2)Nc2ncc(Cl)c(n2)Nc2cccc1c2` (stereo not drawn) [Example D23, 6-Chloro-14-thia-2,4,8,23-tetraazatetracyclo[15.3.1.1(3,7).1(9,13)]tricosa-1(21),3(23),4,6,9(22),10,12,17,19-nonaene 14-oxide trifluoroacetate]: the pIC50 in test [1] (Table D1) was 8.31; in test [2] (Table D1) it was 7.64; in test [3] (Table D1, 90 μM ATP) it was 5.92; in test [4] (Table D1) it was 7.68.

Regarding `Cc1ccc(C#N)c(N2CCC(CC(=O)Nc3ccc4cc3CCc3cncc(c3)Nc3ncc(Cl)c(n3)N4)CC2)n1` [Example A238, N-[6-Chloro-2,4,8,18,22-pentaazatetracyclo[14.3.1.1(3,7).1(9,13)]docosa-1(20),3(22),4,6,9(21),10,12,16,18-nonaen-12-yl]-2-[1-(3-cyano-6-methylpyridin-2-yl)piperidin-4-yl]acetamide tris(trifluoroacetate)], the pIC50 was 6.61 in test [1] (setting [6]), less than 6.40 in test [4] (setting [8]) and 7.74 in test [5] (setting [9]). Moreover, the “ALK % of inhibition” value in test [3] (setting [7]) was determined as 15%.

With `O=C(Nc1ccc2cc1CCc1cncc(c1)Nc1ncc(Cl)c(n1)N2)N1CCN(c2ncc(C(F)(F)F)cc2Cl)CC1` [Example B302, N-[6-Chloro-2,4,8,18,22-pentaazatetracyclo[14.3.1.1(3,7).1(9,13)]docosa-1(20),3(22),4,6,9(21),10,12,16,18-nonaen-12-yl]-4-[3-chloro-5-(trifluoromethyl)pyridin-2-yl]piperazine-1-carboxamide tris(trifluoroacetate)], the pIC50 was less than 6.40 in test [1] (Table B1), less than 6.40 in test [4] (Table B1) and 6.92 in test [5] (Table B1). Moreover, in test [3] (percentage inhibition of the example compound at a concentration of 500 nM or 1 mM (not specified which)), the “ALK % of inhibition” value is given as 69%.

In the case of `CC(C)(C)OC(=O)N1CCN(C(=O)COc2ccc3cc2CCc2cccc(c2)Nc2ncc(Cl)c(n2)N3)CC1` [Example A17, tert-Butyl 4-({[6-chloro-2,4,8,22-tetraazatetracyclo[14.3.1.1(3,7).1(9,13)]docosa-1(20),3(22),4,6,9(21),10,12,16,18-nonaen-12-yl]oxy}acetyl)piperazine-1-carboxylate trifluoroacetate], the values for the pIC50 in test [1] (setting [6]), in test [4] (setting [8]) and in test [5] (setting [9]) were 7.06, 6.66 and 7.07, respectively. Further, the “ALK % of inhibition” value in test [3] (setting [7]) was determined as 7%.

Regarding `Clc1cnc2nc1Nc1cccc(c1)NCc1cccc(c1)N2` [Example D16, 6-Chloro-2,4,8,14,22-pentaazatetracyclo[14.3.1.1(3,7).1(9,13)]docosa-1(20),3(22),4,6,9(21),10,12,16,18-nonaene bis(trifluoroacetate)], the negative logarithm of the IC50 (pIC50) in test [1] (Table D1) is 6.95; in test [3] (Table D1, 90 μM ATP), less than 5.00; in test [4] (Table D1) it was 6.49; in test [5] (Table D1), 6.84.

For the compound `Cc1noc(C)c1NC(=O)N1CCC(CC(=O)Nc2ccc3cc2CCc2cncc(c2)Nc2ncc(Cl)c(n2)N3)CC1` [Example A19, bis(trifluoroacetate)], the pIC50 in test [1] (setting [6]) is 7.27; in test [4] (setting [8]), less than 7.00; in test [5] (setting [9]), 7.77. Besides, the “ALK % of inhibition” value in test [3] (compound at 500 nM or 1 mM, 90 μM ATP, bis(trifluoroacetate)) is 17%.

Take `O=S(=O)(Nc1ccc2cc1CCc1cccc(c1)Nc1ncc(Cl)c(n1)N2)c1ccccc1C(F)(F)F` [Example B164, N-[6-Chloro-2,4,8,22-tetraazatetracyclo[14.3.1.1(3,7).1(9,13)]docosa-1(20), 3(22),4,6,9(21),10,12,16,18-nonaen-12-yl]-2-(trifluoromethyl)benzenesulfonamide trifluoroacetate]: the results for the pIC50 in test [1] (Table B1), in test [2] (Table B1) and in test [5] (Table B1) were 8.08, 8.09 and 8.10, respectively. Moreover, the “ALK % of inhibition” value in test [3] (setting [11]) is 4.6%.

As for `CC(=O)NCCNC(=O)Nc1ccc2cc1CCc1cccc(c1)Nc1ncc(Cl)c(n1)N2` [Example B186, N-{2-[({[6-Chloro-2,4,8,22-tetraazatetracyclo[14.3.1.1(3,7).1(9,13)]docosa-1(20),3(22),4,6,9(21),10,12,16,18-nonaen-12-yl]amino}carbonyl)amino]ethyl}acetamide trifluoroacetate], the pIC50 was 8.09 in test [1] (Table B1), 8.02 in test [2] (Table B1) and 8.40 in test [5] (Table B1). The “ALK % of inhibition” value in test [3] (setting [11]) is reported as 21%.

Regarding `Clc1cnc2nc1Nc1cc(cc(CN3CCN(Cc4ccc(Oc5ncccn5)cc4)CC3)c1)CCc1cccc(c1)N2` [Example B193, 6-Chloro-11-({4-[4-(pyrimidin-2-yloxy)benzyl]piperazin-1-yl}methyl)-2,4,8,22-tetraazatetracyclo[14.3.1.1(3,7).1(9,13)]docosa-1(20),3(22),4,6,9(21),10,12,16,18-nonaene tris(trifluoroacetate)], the pIC50 in test [1] (Table B1) was 7.33; in test [2] (Table B1), 6.02; in test [3] (setting [10]) it was less than 6.00; in test [5] (Table B1) it was 7.26.

On to `CC(C)(C)OC(=O)N1CCC(NC(=O)Nc2ccc3cc2CCc2cccc(c2)Nc2ncc(Cl)c(n2)N3)CC1` [Example B180, tert-Butyl 4-[({[6-chloro-2,4,8,22-tetraazatetracyclo[14.3.1.1(3,7).1(9,13)]docosa-1(20),3(22),4,6,9(21),10,12,16,18-nonaen-12-yl]amino}carbonyl)amino]piperidine-1-carboxylate], for which the values for the pIC50 in test [1] (Table B1), in test [2] (Table B1) and in test [5] (Table B1) were 7.01, 6.35 and 7.04, respectively. Moreover, the “ALK % of inhibition” value in test [3] (setting [11]) is 3.5%.

Turning to `N#Cc1ccc(C(=O)N2CCC(CC(=O)Nc3ccc4cc3CCc3cncc(c3)Nc3ncc(Cl)c(n3)N4)CC2)cc1` [Example A190, N-[6-Chloro-2,4,8,18,22-pentaazatetracyclo[14.3.1.1(3,7).1(9,13)]docosa-1(20),3(22),4,6,9(21),10,12,16,18-nonaen-12-yl]-2-[1-(4-cyanobenzoyl)piperidin-4-yl]acetamide bis(trifluoroacetate)], the pIC50 in test [1] (setting [6]), in test [2] and in test [4] (setting [8]) was less than 6.70 in each case. In test [3] (setting [7]), the “ALK % of inhibition” value came out at 27%.

As for `O=S1(=O)Cc2cccc(c2)Nc2nc(ncc2Cl)Nc2cccc(c2)N1` [Example C8, 6-Chloro-15-thia-2,4,8,16,23-pentaazatetracyclo[15.3.1.1(3,7).1(9,13)]tricosa-1(21),3(23),4,6,9(22),10,12,17,19-nonaene 15,15-dioxide trifluoroacetate], the pIC50 was 7.18 in test [1], less than 6.00 in test [3] and 6.62 in test [4].

A word on the pIC50: it is −log10 of the IC50, conventionally taken in molar units.
